# Source: the supplement of paper PMC11451515
# How the values were obtained:
# Assay in all cases: AUC of viability dose-response curve (% viability x log10 dose units); higher = less sensitive
# Details in all cases: 48 h
# NOMO1 = tested on: NOMO1
# Method in brief: (§1)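 Over 48 h at 37°C, leukemia cells in 1536-well plates (500 or 1000 cells/well), adapted to each medium, received library compounds in DMSO at 11 threefold doses from 47 μM to 0.79 nM. CellTiter-Glo One luminescence, normalised per plate to DMSO and cell-free wells, was fitted by a four-parameter log-logistic function of log10 dose. The area under the curve was then integrated by trapezoidal rule, after scaling curves above full viability and removing those that failed quality control.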
# P12-Ichikawa = tested on: P12-Ichikawa
# Method in brief: as §1
# SEM cells = tested on: SEM cells
# Method in brief: as §1
# [1] = RPMI 5 mM glucose + 10% dialyzed FBS
Compound,AUC of viability dose-response curve (NOMO1; HPLM + 10% dialyzed FBS),AUC of viability dose-response curve (NOMO1; RPMI 5 mM glucose + 10% FBS),AUC of viability dose-response curve (NOMO1; [1]),AUC of viability dose-response curve (P12-Ichikawa; HPLM + 10% dialyzed FBS),AUC of viability dose-response curve (P12-Ichikawa; RPMI 5 mM glucose + 10% FBS),AUC of viability dose-response curve (P12-Ichikawa; [1]),AUC of viability dose-response curve (SEM cells; HPLM + 10% dialyzed FBS),AUC of viability dose-response curve (SEM cells; RPMI 5 mM glucose + 10% FBS),AUC of viability dose-response curve (SEM cells; [1])
CCOc1ccc(Cc2cc([C@@H]3O[C@H](CO)[C@@H](O)[C@H](O)[C@H]3O)ccc2Cl)cc1,470,464,476,459,466,469,465,450,468
O=[S+]([O-])(c1cccc2cnccc12)N1CCCNCC1,457,471,465,456,476,467,452,463,447
CC1(C)C(N(O)C(=O)Nc2ccc(Cl)cc2)N(c2ccc(Cl)cc2)C(=O)N1CC(=O)N/N=C/C=C/c1ccc([N+](=O)[O-])o1 (stereo not given),447,447,468,465,461,453,453,386,382
Cc1onc(-c2ccccc2)c1C(=O)N[C@@H]1C(=O)N2[C@@H]1SC(C)(C)[C@@H]2C(=O)[O-].[Na+],379,407,401,440,414,394,–,–,–
CC(C)(O)/C=C\C(=O)[C@](C)(O)[C@H]1[C@H](O)C[C@]2(C)[C@@H]3CC=C4[C@@H](C=C(O)C(=O)C4(C)C)[C@]3(C)C(=O)C[C@@]12C,272,273,268,269,251,259,234,209,221
OCc1ccc(-c2ccc(-c3ccc(CO)s3)o2)s1,437,432,428,429,429,415,450,386,453
COc1cc(/C=C/C(=O)O)ccc1O,463,452,438,452,434,441,411,412,460
COc1ncc(-c2ccc3c(Nc4cc(Oc5cc(F)cc(F)c5)cc(C(=O)O)c4)c([S+](=O)([O-])NC4CC4)cnc3c2)c(OC)n1,442,440,428,433,405,401,387,457,414
Nc1ncnc2c1c(-c1cccc(OCc3ccccc3)c1)cn2C1CC(CN2CCCC2)C1 (stereo not given),411,441,423,463,466,465,388,414,405
COc1cccc2c1[C@]13CCN(CC4CC4)[C@H](C2)[C@]1(OC)CCC(=O)C3,469,459,473,451,436,446,422,416,421
C[C@]12CCC\3=C\4CCC(=O)\C=C4CC[C@H]3[C@@H]1CC[C@@]2(O)CC#N,436,468,454,473,466,468,437,445,451
Nc1ncnc2c1nc(Cl)n2[C@@H]1O[C@H](CO)[C@@H](O)[C@H]1O,–,–,–,454,463,452,412,419,406
Cc1c[nH]c(-c2cnc(NCCNc3ccc(C#N)cn3)nc2-c2ccc(Cl)cc2Cl)n1,398,381,396,397,366,379,–,–,–
C[C@H]1O[C@H](C[C@H](O)[C@@H]1O)O[C@H]2[C@@H](O)C[C@@H](O[C@@H]2C)O[C@H]3[C@@H](O)C[C@@H](O[C@@H]3C)O[C@H]4CC[C@@]5(C)[C@H](CC[C@@H]6[C@@H]5C[C@@H](O)[C@]7(C)[C@H](CC[C@]67O)C/8=C/C(=O)OC8)C4,226,280,253,208,242,227,200,250,239
N#C/C(C(=O)c1ccc(Cl)cc1Cl)=C1/NC(=O)c2ccc(Cl)cc2N1,453,453,456,451,440,463,459,449,454
CC(O)C1C2C(C)\C(=C(/N2C1=O)C(O)=O)SC3CNC(C3)C(=O)N(C)C (stereo not given),416,404,396,432,392,416,395,407,438
COc1cc(C)c(Sc2cnc(NC(=O)c3ccc(CNC(C)C(C)C)cc3)s2)cc1C(=O)N1CCN(C(C)=O)CC1 (stereo not given),430,460,445,448,418,443,386,436,425
C[C@@]1(C(=O)Nc2ccc(F)nc2)CCCN1c1nc(Nc2cc(C3CC3)[nH]n2)c2cccn2n1,369,417,392,374,380,393,–,–,–
NC(=O)OCC(COC(N)=O)c1ccccc1,434,465,456,465,460,465,455,448,471
CNC(=O)[C@H](CC/1=C/N=C\2/C=C\C\C=C12)NC(=O)[C@H](CC(C)C)CC(=O)NO,400,413,418,425,423,423,471,462,465
CC/1=C(/N2[C@H](SC1)[C@H](NC(=O)C(N)C3=CC=CC=C3)C2=O)C(O)=O (stereo not given in full),457,459,464,461,472,473,437,464,467
CN1CCN(C(=O)O[C@H]2c3nccnc3C(=O)N2c2ccc(Cl)cn2)CC1,451,467,464,468,461,470,453,450,445
CN(C)C(=O)C(CCN1CCC(O)(c2ccc(Cl)cc2)CC1)(c1ccccc1)c1ccccc1,448,445,436,460,444,444,445,436,449

Compound,AUC of viability dose-response curve (NOMO1; HPLM + 10% dialyzed FBS),AUC of viability dose-response curve (NOMO1; RPMI 5 mM glucose + 10% FBS),AUC of viability dose-response curve (NOMO1; [1]),AUC of viability dose-response curve (P12-Ichikawa; HPLM + 10% dialyzed FBS),AUC of viability dose-response curve (P12-Ichikawa; RPMI 5 mM glucose + 10% FBS),AUC of viability dose-response curve (P12-Ichikawa; [1]),AUC of viability dose-response curve (SEM cells; HPLM + 10% dialyzed FBS),AUC of viability dose-response curve (SEM cells; RPMI 5 mM glucose + 10% FBS),AUC of viability dose-response curve (SEM cells; [1])
C[C@H]1COC/2=C1/C(=O)C(=O)C3=C4CCCC(C)(C)C4=CC=C23,447,469,448,468,466,473,434,363,400
O=C1NC(=O)/C(=C/c2ccc(-c3ccc(F)cc3O)o2)S1,430,443,422,447,420,427,445,419,427
Cc1nc(Nc2n[nH]c3c2CN(C(=O)N[C@H](CN(C)C)c2ccccc2)C3(C)C)c2sccc2n1,262,277,266,317,258,266,–,–,–
CC(C)(O)c1cc2nc(-c3cnc(N)nc3)nc(N3CCOCC3)c2s1,343,402,334,406,361,363,–,–,–
COc1cc(CNC(=O)CCCC/C=C/C(C)C)ccc1O,380,368,399,287,322,305,343,310,329
CC(C)[C@H](N)C(=O)OCCOC[N]1C=NC2=C1\N=C(N)/NC2=O,457,459,474,475,450,458,467,457,465
CC/1=C(\O)C(=O)\C=C2/C1=C/C=C3\[C@@]2(C)CC[C@@]4(C)[C@@H]5C[C@@](C)(CC[C@]5(C)CC[C@]34C)C(O)=O,366,360,363,386,360,346,362,355,341
Cc1noc(-c2ccc(CSCCC(=O)O)cc2)c1NC(=O)OC(C)c1ccccc1Cl (stereo not given),468,457,432,464,428,437,453,433,471
C[C@@H](O)[C@@H]1NC(=O)[C@H](CCCCN)NC(=O)[C@@H](Cc2c[nH]c3ccccc23)NC(=O)[C@H](Cc2ccccc2)NC(=O)[C@@H](NC(=O)[C@H](N)Cc2ccccc2)CSSC[C@@H](C(=O)N[C@H](CO)[C@@H](C)O)NC1=O,–,–,–,438,395,391,422,404,380
OC[C@H]1O[C@@H](Oc2cc(O)cc(/C=C/c3ccc(O)cc3)c2)[C@H](O)[C@@H](O)[C@@H]1O,397,426,416,449,465,473,451,433,429
Cc1cccc(/C=N/Nc2cc(N3CCOCC3)nc(OCCc3ccccn3)n2)c1,382,352,322,399,373,343,415,396,358
CCOC(=O)\C1=C\[C@@H](OC(CC)CC)[C@H](NC(C)=O)[C@@H](N)C1,440,450,454,463,460,419,416,432,414
CN(C)C1=C(Br)C=C(C=C1)C\2NC3=C(\C4=C2C(=O)CC(C)(C)C4)C5=CC=CC=C5C=C3 (stereo not given),–,–,–,466,447,459,471,465,470
CC(C)(C)[C@H](NC(=O)c1ccc(N)c(Cl)c1)C(=O)N1CCC[C@H]1C(=O)N[C@H](C#N)CC(=O)O,359,343,354,377,387,419,429,470,451
CO/N=C(\C(=O)N[C@@H]1C(=O)N2C(C(=O)OCOC(=O)C(C)(C)C)=C(/C=C\c3scnc3C)CS[C@H]12)c1csc(N)n1,453,448,398,463,449,451,419,412,453
Cc1ncc([N+](=O)[O-])n1CC(C)O (stereo not given),467,465,459,467,462,463,–,–,–
O.O.CCN1CCN(C(=O)N[C@H](C(=O)N[C@H]2[C@@H]3SC\C(=C(/N3C2=O)C(O)=O)CSC4=NN=N[N]4C)C5=CC=C(O)C=C5)C(=O)C1=O,–,–,–,–,–,–,422,425,413
COC1=CC=C2CN(C)CC[C@@]34\C=C/[C@H](O)C[C@@H]3OC1=C24,437,468,451,449,456,454,–,–,–
N=C1N[C@H]2[C@H](CS[C@H]2CCCCC(=O)O)N1,456,473,443,464,464,470,–,–,–
CC(C)Cc1ccc(C(C)C(=O)O)cc1 (stereo not given),–,–,–,442,408,410,371,396,425
Nc1nc(Cl)nc2c1ncn2[C@@H]1O[C@H](CO)[C@@H](O)[C@@H]1F,–,–,–,83.1,75.7,115,68,55.4,55.4
N#C/N=C(\NCCCCCCOc1ccc(Cl)cc1)Nc1ccncc1,–,–,–,–,–,–,48.4,34.6,38
CNC(=O)Nc1ccc(-c2nc(N3CC4CCC(C3)O4)c3cnn(C4CCC5(CC4)OCCO5)c3n2)cc1,359,367,338,389,324,336,–,–,–
